# Laboratory results from PubChem BioAssay (NCI).
# “And” between values parts separate entries of the source, which are not always exact repeats. Identical values can stand only once.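 Where inhibition never reached the appropriate level, the endpoint shown equals the highest concentration tested. Otherwise, values were interpolated linearly from a five-concentration, 48-hour dose response in 96-well plates. GI50 marks 50% less growth. TGI marks complete inhibition of growth.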
# How the values were obtained:
# Assay in all cases: growth of human tumour cells (NCI), 48 h
# ACHN renal = tested on: ACHN renal
# MALME-3M melanoma = tested on: MALME-3M melanoma
# SK-OV-3 ovarian = tested on: SK-OV-3 ovarian
# LXFL 529 NSCLC = tested on: LXFL 529 NSCLC
# U251 CNS = tested on: U251 CNS
# HCC-2998 colon = tested on: HCC-2998 colon
# HT29 colon = tested on: HT29 colon
# KM20L2 colon = tested on: KM20L2 colon
# MCF7 breast = tested on: MCF7 breast
# DU-145 prostate = tested on: DU-145 prostate
Structure (SMILES),TGI (ACHN renal),TGI (MALME-3M melanoma) [µM],TGI (SK-OV-3 ovarian) [µM],TGI (LXFL 529 NSCLC) [µM],TGI (U251 CNS) [µM],TGI (HCC-2998 colon),TGI (HT29 colon),TGI (KM20L2 colon) [µM],GI50 (ACHN renal),GI50 (MALME-3M melanoma),GI50 (SK-OV-3 ovarian) [µM],GI50 (LXFL 529 NSCLC) [µM],GI50 (U251 CNS),GI50 (HCC-2998 colon),GI50 (HT29 colon),GI50 (KM20L2 colon) [µM],GI50 (MCF7 breast) [µM],TGI (MCF7 breast),GI50 (DU-145 prostate) [µM],TGI (DU-145 prostate) [µM]
COC(=O)/C(C#N)=C1\N=NNN1CCCc1ccccc1,> 100 µM,> 100,> 100,> 100,> 100,> 100 µM,> 100 µM,–,–,–,–,–,–,–,–,–,–,–,–,–
COc1ccccc1NC(=O)C1=C(C)NC(C)=C(C(=O)Nc2ccccc2OC)C1c1ccc(C(C)C)cc1,> 100 µM,> 100,> 100,> 100,> 100,> 100 µM,> 100 µM,> 100,–,–,–,–,–,–,–,–,–,–,–,–
CC(CN(CP(=O)([O-])[O-])CP(=O)([O-])[O-])N(CP(=O)([O-])[O-])CP(=O)([O-])[O-].N[C@@H]1CCCC[C@@H]1N.[Pt+2] (stereo not given),> 100 µM,> 100,> 100,> 100,> 100,> 100 µM,> 100 µM,> 100,> 100 µM,> 100 µM,> 100,> 100,> 100 µM,> 100 µM,> 100 µM,> 100,–,–,–,–
C/C=C/C1(NS(=O)(=O)c2ccc(C)cc2)CCC(C(C)(C)C)CC1 (stereo not given),> 100 µM,49.4,81.5,> 100,29.5,36.1 µM,37.9 µM,38.7,–,–,–,–,–,–,–,–,–,–,–,–
N#CC(C#N)=C1NC(=O)C(c2ccccc2)C(=O)N1 (stereo not given),–,> 100,> 100,> 100,> 100,> 100 µM,> 100 µM,> 100,–,–,–,–,–,–,–,–,–,–,–,–
Cc1ccccc1NC(=O)c1[nH]c(=S)nc(N)c1-c1ccccc1C,> 100 µM,> 100,> 100,> 100,> 100,> 100 µM,> 100 µM,> 100,–,–,–,–,–,–,–,–,–,–,–,–
COC(=O)C1Cc2c([nH]c3ccccc23)C=N1 (stereo not given),> 100 µM,> 100,> 100,> 100,> 100,> 100 µM,> 100 µM,> 100,–,–,–,–,–,–,–,–,–,–,–,–
O=Cc1ccc(C(F)(F)F)cc1.[C-]#[O+].[C-]#[O+].[C-]#[O+].[Cr],> 100 µM,91,> 100,–,> 100,> 100 µM,54.3 µM,–,30.2 µM,26.8 µM,31.3,–,26.8 µM,53.6 µM,22.6 µM,–,24.7,> 100 µM,20.9,94.9
O=Nc1c(-c2cccc([N+](=O)[O-])c2)nc2ncccn12,23.2 µM,29.1,59.6,–,32.5,28.9 µM,44.1 µM,–,8.73 µM,14.5 µM,22.8,–,13.9 µM,15.2 µM,9.84 µM,–,3.51,22.6 µM,4.24,16.8
NC(=O)NC(=O)CI,3.39 µM,3.32,> 56.2,–,29.3,35.1 µM,25.1 µM,–,1.78 µM,1.42 µM,27.4,–,15.3 µM,18.5 µM,8.97 µM,–,3.33,16.6 µM,17.7,32.3
Nc1nc(Cl)nc2c1ncn2C1O[C@H](CO)[C@@H](O)[C@@H]1F (stereo not given in full),–,> 100,> 100,–,> 100,> 100 µM,> 100 µM,–,0.33 µM,43.4 µM,0.761,–,0.442 µM,0.075 µM,–,–,0.185,> 100 µM,0.332,> 32.4
Cc1cccc(C)c1NC(=O)C(=O)C1C(=O)N(c2ccccc2)N=C1N (stereo not given),> 100 µM,> 100,> 100,> 100,> 100,> 100 µM,> 100 µM,> 100,–,–,–,–,–,–,–,–,–,–,–,–
COc1cc(/C=C/C(=O)c2ccc(Nc3nc(Nc4ccc(F)cc4)nc(Nc4ccc(F)cc4)n3)cc2)cc(OC)c1OC,> 100 µM,82.4,> 100,–,> 100,> 100 µM,> 100 µM,–,21.2 µM,17.1 µM,80.7,–,7.92 µM,27.7 µM,9.36 µM,–,5.26,> 100 µM,> 100,> 100
CSC(=S)N/N=C(\C)c1ccccn1,11.8 µM,9.1,15.2,–,13.6,16.2 µM,18.1 µM,–,0.232 µM,0.177 µM,0.589,–,0.199 µM,0.509 µM,< 0.0394 µM,–,< 0.0207,11.2 µM,0.465,12.2
CCOC1NC(=O)Oc2ccccc21 (stereo not given),> 100 µM,> 100,> 100,–,> 100,> 100 µM,> 100 µM,–,–,–,–,–,–,–,–,–,–,> 100 µM,–,> 100
O=C1c2cccc3cccc(c23)C(=O)N1CCCCOc1ccc(-c2nc3ccc(N4CCOCC4)cc3[nH]2)cc1,29.2 µM,3.21,> 54,–,4.56,> 47.8 µM,> 35.3 µM,–,15.2 µM,0.558 µM,31.2,–,1.53 µM,5.25 µM,2.23 µM,–,2.92,12.8 µM,3.86,15.8
Cn1c(=O)c(F)c(Nc2ccc(I)cc2F)c2c(=O)n(C[C@@H](O)CO)cnc21,40.8 µM and > 6.49 µM,< 0.01,> 68.8,–,> 49.9,0.0969 µM and 0.57 µM,19.5 µM and > 3.46 µM,–,2.17 µM and 0.48 µM,< 0.01 µM and 0.00177 µM,15.1,–,0.741 µM and 0.246 µM,< 0.01 µM and 0.0028 µM,< 0.01 µM and 0.0029 µM,–,21,75 µM and > 4.05 µM,–,> 100
Cc1cc(Cl)ccc1N1C(=O)C(=O)C(c2nc3ccccc3s2)C(=O)C1=O,> 100 µM,> 100,> 100,> 100,> 100,–,> 100 µM,> 100,–,–,–,–,–,–,–,–,–,–,–,–

Structure (SMILES),TGI (ACHN renal),TGI (MALME-3M melanoma) [µM],TGI (SK-OV-3 ovarian) [µM],TGI (LXFL 529 NSCLC) [µM],TGI (U251 CNS) [µM],TGI (HCC-2998 colon),TGI (HT29 colon),TGI (KM20L2 colon) [µM],GI50 (ACHN renal),GI50 (MALME-3M melanoma),GI50 (SK-OV-3 ovarian) [µM],GI50 (LXFL 529 NSCLC) [µM],GI50 (U251 CNS),GI50 (HCC-2998 colon),GI50 (HT29 colon),GI50 (KM20L2 colon) [µM],GI50 (MCF7 breast) [µM],TGI (MCF7 breast),GI50 (DU-145 prostate) [µM],TGI (DU-145 prostate) [µM]
O=C1NC(=NCCc2ccccc2Cl)S/C1=C\c1ccc2ncccc2c1,> 25 µM,> 25,> 20.4,–,> 21.4,> 25 µM,> 18.9 µM,–,6.5 µM,> 21.3 µM,5.94,–,2.64 µM,6.33 µM,2.79 µM,–,1.32,> 25 µM,6.9,> 25
O=C(/C=N/O)c1c(-c2ccccc2)[nH]c(-c2ccccc2)c1-c1ccccc1,43.4 µM,32.9,35.1,–,32.3,58.1 µM,61 µM,–,–,–,–,–,–,–,–,–,–,39.7 µM,–,12.3
C[n+]1c2ccccc2c(NC2CCNCC2)c2[nH]c3ccccc3c21,32.1 µM,3.55,3,–,1.91,1.63 µM,2.64 µM,–,4.68 µM,1.35 µM,0.302,–,0.198 µM,0.331 µM,0.18 µM,–,0.231,2.2 µM,0.2,4.32
CCOc1ccc2c(c1)/C(=C\C=C\C1CC(C)C3CC(OCC)CCC3N1CC)CC(C)N2CC (stereo not given),2.95 µM,3.42,1.92,–,1.51,2.42 µM,1.69 µM,–,1.43 µM,1.61 µM,0.596,–,0.38 µM,1.05 µM,0.521 µM,–,0.627,2.43 µM,0.991,2.25
Cc1nc2cc(O)c(O)cc2cc1Oc1ccc(NC(=O)Nc2ccc(Cl)c(Cl)c2)cc1,17.9 µM,26,> 32.5,–,> 32.5,14.6 µM,> 32.5 µM,–,3.37 µM,8.6 µM,11.7,–,6.58 µM,6.7 µM,11.9 µM,–,8.71,> 32.5 µM,7.26,25.2
COC(=O)c1c(-c2ccccc2)csc1NC(=O)c1c(-c2ccccc2)noc1C,> 100 µM,> 100,> 100,–,> 100,> 100 µM,> 100 µM,–,0.995 µM,> 100 µM,3.08,–,0.321 µM,> 21 µM,0.399 µM,–,0.6,> 100 µM,1.98,> 100
COc1ccc(-n2c(N)c(C(=O)NCCN3CCOCC3)c3nc4ccccc4nc32)cc1OC,> 100 µM,71.8,> 100,–,> 100,> 100 µM,> 100 µM,–,4.16 µM,6.32 µM,85.5,–,8.68 µM,94.3 µM,5.8 µM,–,4.13,> 100 µM,9.81,> 100
O=C(Nc1ccccc1Cl)c1ccc(NC2=C(Cl)C(=O)N(Cc3ccccc3)C2=O)cc1,> 100 µM,> 100,> 100,–,> 100,26.6 µM,> 100 µM,–,37.6 µM,86.1 µM,> 100,–,38.4 µM,13.7 µM,44.8 µM,–,17.2,36 µM,> 100,> 100
COC(=O)c1ccc2c(c1)nc(-c1ccc(Cl)cc1)n2-c1cc(C(C)(C)C)[nH]n1,9.34 µM,15.6,31,–,22.7,19.8 µM,15.4 µM,–,3 µM,3.25 µM,3.71,–,4.13 µM,3.9 µM,3.65 µM,–,2.79,12.3 µM,3.69,25.1
Cn1c(=O)c(Cc2ccc(F)cc2F)cc2cnc(NC3CCOCC3)nc21,> 25 µM,> 25,> 25,–,> 25,> 25 µM,> 25 µM,–,> 25 µM,> 25 µM,> 25,–,> 25 µM,> 25 µM,> 25 µM,–,> 25,> 25 µM,> 25,> 25
Cc1ccc(/C=C(\C#N)n2nnc3cc(F)c(F)cc32)cc1,34.7 µM,56.7,33.7,–,2.94,11.6 µM,1.53 µM,–,4.2 µM,15.9 µM,4.49,–,1.48 µM,2.96 µM,0.421 µM,–,2.45,> 100 µM,3.32,15.6
O=C(/C=C/c1ccccc1F)C(c1ccccc1)c1ccccc1,7.66 µM,23.7,8.47,12,13,–,11.5 µM,15.6,–,–,–,–,–,–,–,–,–,–,–,–
O=C(OCCOCCOC(=O)c1c[nH]cc1-c1ccccc1)c1c[nH]cc1-c1ccccc1,–,55.2,84.4,69.2,36.7,42.4 µM,35.2 µM,46,–,–,–,–,–,–,–,–,–,–,–,–
C[Si](C)(C)/C(Br)=C\CCN1C(=O)CCC1O (stereo not given),> 100 µM,> 100,> 100,> 100,> 100,–,> 100 µM,> 100,–,–,–,–,–,–,–,–,–,–,–,–
COc1ccccc1Nc1nc(-c2cc3cccc(C(F)(F)F)c3oc2=O)cs1,> 100 µM,> 85.6,> 93.9,–,29.3,> 47.7 µM,11.9 µM,–,0.106 µM,1.63 µM,0.237,–,0.11 µM,0.344 µM,0.126 µM,–,0.0574,> 100 µM,0.263,–
Cc1cc2c(=O)cc(-c3ccc(Cl)cc3)oc2c(C(=O)O)c1C,> 100 µM,> 100,> 100,> 100,> 100,–,> 100 µM,> 100,–,–,–,–,–,–,–,–,–,–,–,–
Cn1cccc1-c1cc(-c2ccc(Br)cc2)nc(N)c1C#N,> 100 µM,> 100,> 100,–,> 100,> 100 µM,> 100 µM,–,> 100 µM,> 100 µM,> 100,–,> 100 µM,> 100 µM,> 100 µM,–,> 100,> 100 µM,> 100,> 100
CC(=O)Nc1ccc(C(=O)N[C@@H]2C(=O)N3[C@@H]2SC(C)(C)[C@@H]3C(=O)O)cn1,> 100 µM,> 100,> 100,–,> 100,> 100 µM,> 100 µM,–,–,–,–,–,–,–,–,–,–,> 100 µM,–,> 100
